Our source for the IC50 values is US11370763B2, “Compounds and compositions for treating conditions associated with NLRP activity” (Novartis AG, priority 2017, dated 2022).

The test deals with IL-1β production in PMA-differentiated THP-1 cells. The test can be described thus: IL-1β production in PMA-differentiated THP-1 cells stimulated with gramicidin (hTHP-1 assay containing 2% fetal bovine serum; Procedures 1-3). The test is classed as cell-based, human. As to conditions: read-out: hTHP-1 IC50 (Average IC50 of compounds in hTHP-1 assay). The method, then:
The following protocol is suitable for testing the activity of the compounds disclosed herein.
Procedure 1: IL-1β Production in PMA-Differentiated THP-1 Cells Stimulated with Gramicidin
THP-1 cells were purchased from the American Type Culture Collection and sub-cultured according to instructions from the supplier. Cells were cultured in complete RPMI 1640 (containing 10% heat inactivated FBS, penicillin (100 units/ml) and streptomycin (100 μg/ml)), and maintained in log phase prior to experimental setup. Prior to the experiment, compounds were dissolved in dimethyl sulfoxide (DMSO) to generate a 30 mM stock. The compound stock was first pre-diluted in DMSO to 3, 0.34, 0.042 and 0.0083 mM intermediate concentrations and subsequently spotted using Echo550 liquid handler into an empty 384-well assay plate to achieve desired final concentration (e.g. 100, 33, 11, 3.7, 1.2, 0.41, 0.14, 0.046, 0.015, 0.0051, 0.0017 μM). DMSO was backfilled in the plate to achieve a final DMSO assay concentration of 0.37%. The plate was then sealed and stored at room temperature until required.
THP-1 cells were treated with PMA (Phorbol 12-myristate 13-acetate) (20 ng/ml) for 16-18 hours. On the day of the experiment the media was removed and adherent cells were detached with trypsin for 5 minutes. Cells were then harvested, washed with complete RPMI 1640, spun down, and resuspended in RPMI 1640 (containing 2% heat inactivated FBS, penicillin (100 units/ml) and streptomycin (100 μg/ml). The cells were plated in the 384-well assay plate containing the spotted compounds at a density of 50,000 cells/well (final assay volume 50 μl). Cells were incubated with compounds for 1 hour and then stimulated with gramicidin (5 μM) (Enzo) for 2 hours. Plates were then centrifuged at 340 g for 5 min. Cell free supernatant (40 μL) was collected using a 96-channel PlateMaster (Gilson) and the production of IL-1β was evaluated by HTRF (cisbio). The plates were incubated for 18 h at 4° C. and read using the preset HTRF program (donor emission at 620 nm, acceptor emission at 668 nm) of the SpectraMax i3x spectrophotometer (Molecular Devices, software SoftMax 6). A vehicle only control and a dose titration of CRID3 (100-0.0017 μM) were run concurrently with each experiment.
Procedure 2: IL-1β Production in PMA-Differentiated THP-1 Cells Stimulated with Gramicidin
THP-1 cells were purchased from the American Type Culture Collection and sub-cultured according to instructions from the supplier. Prior to experiments, cells were cultured in complete RPMI 1640 (containing 10% heat inactivated FBS, penicillin (100 units/ml) and streptomycin (100 μg/ml)), and maintained in log phase prior to experimental setup. Prior to the experiment THP-1 were treated with PMA (Phorbol 12-myristate 13-acetate) (20 ng/ml) for 16-18 hours. Compounds were dissolved in dimethyl sulfoxide (DMSO) to generate a 30 mM stock. On the day of the experiment the media was removed and adherent cells were detached with trypsin for 5 minutes. Cells were then harvested, washed with complete RPMI 1640, spun down, resuspended in RPMI 1640 (containing 2% heat inactivated FBS, penicillin (100 units/ml) and streptomycin (100 μg/ml). The cells were plated in a 384-well plate at a density of 50,000 cells/well (final assay volume 50 μl). Compounds were first dissolved in assay medium to obtain a 5× top concentration of 500 μM. 10 step dilutions (1:3) were then undertaken in assay medium containing 1.67% DMSO. 5× compound solutions were added to the culture medium to achieve desired final concentration (e.g. 100, 33, 11, 3.7, 1.2, 0.41, 0.14, 0.046, 0.015, 0.0051, 0.0017 μM). Final DMSO concentration was at 0.37%. Cells were incubated with compounds for 1 hour and then stimulated with gramicidin (5 μM) (Enzo) for 2 hours. Plates were then centrifuged at 340 g for 5 min. Cell free supernatant (40 μL) was collected using a 96-channel PlateMaster (Gilson) and the production of IL-1β was evaluated by HTRF (cisbio). […]

Setting [1] is: Homo sapiens, THP-1, hTHP-1 assay containing 2% fetal bovine serum, class symbols.
[2] abbreviates: Homo sapiens, THP-1, hTHP-1 assay containing 2% fetal bovine serum, given as numeric bound.
[3] abbreviates: hTHP-1 assay containing 2% fetal bovine serum, class symbols.

Read-outs that look alike come from different tables or passages of the source.

Regarding `CC(C)c1cc(F)cc(C(C)C)c1CC(=O)NS(=N)(=O)c1ccc(C(C)(C)O)cc1` (single isomer, unassigned) [Example 2], the IC50 under setting [1] fell in the range of 1000 to 5000 nM.
Take `CC(C)c1cc(F)cc(C(C)C)c1CC(=O)NS(=N)(=O)c1ccc(C(C)(C)O)cc1` (single isomer, unassigned) [Example 3]: under setting [2], the IC50 is over 30000 nM.
For `CC(C)(O)c1cnc(S(=N)(=O)NC(=O)Cc2c3c(cc4c2CCC4)CCC3)s1` (single isomer, unassigned) [Example 5], the IC50 under setting [2] is over 30000 nM.
For `CC(C)(O)c1cnc(S(=N)(=O)NC(=O)Cc2c3c(cc4c2CCC4)CCC3)s1` (single isomer, unassigned) [Example 6], the IC50 under setting [1] was 1000 to 5000 nM.
As to `CC(C)c1cc(F)cc(C(C)C)c1CC(=O)N[S@](=N)(=O)c1ncc(C(C)(C)O)s1` (single isomer, unassigned) [Example 8], the IC50 under setting [1] fell in the range of 1000 to 5000 nM.
For `CC(C)c1cc(F)cc(C(C)C)c1CC(=O)N[S@@](=N)(=O)c1ncc(C(C)(C)O)s1` (single isomer, unassigned) [Example 9], the IC50 under setting [1] was 200 to 1000 nM.
As for `CC(C)c1cc(F)cc(C2CC2)c1CC(=O)N=S(N)(=O)c1ccc(CN(C)C)cc1` (single isomer, unassigned) [Example 46, (S)- or (R)-2-(2-cyclopropyl-4-fluoro-6-isopropylphenyl)-N-(4-((dimethylamino)methyl)phenyl-sulfonimidoyl)acetamide], the IC50 under setting [2] was over 30000 nM.
Take `CC(C)c1cc(F)cc(C2CC2)c1CC(=O)N=S(N)(=O)c1ccc(CN(C)C)cc1` (single isomer, unassigned) [Example 47, (R)- or (S)-2-(2-cyclopropyl-4-fluoro-6-isopropylphenyl)-N-(4-((dimethylamino)methyl)phenyl-sulfonimidoyl)acetamide]: under setting [1], the IC50 is 200 to 1000 nM.
For the compound `CC(C)c1cc(F)cc(C(C)C)c1CC(=O)N=S(N)(=O)c1sc(C(C)(C)O)cc1F` (single isomer, unassigned) [Example 50, (S)- or (R)-2-(4-fluoro-2,6-diisopropylphenyl)-N-(3-fluoro-5-(2-hydroxypropan-2-yl)thiophen-2-ylsulfonimidoyl)acetamide], the IC50 under setting [3] lay within 8 to 40 nM.
Take `CC(C)c1c(F)c(C#N)cc(C2CC2)c1CC(=O)N=S(N)(=O)c1sc(C(C)(C)O)cc1F` (single isomer, unassigned) [Example 54, (S)- or (R)-2-(4-cyano-6-cyclopropyl-3-fluoro-2-isopropylphenyl)-N-(3-fluoro-5-(2-hydroxypropan-2-yl)thiophen-2-ylsulfonimidoyl)acetamide]: the IC50 under setting [3] lay in the range of 8 to 40 nM.
Still for that read-out and setting: the result for `CC(C)c1cc(Cl)c(F)c(C2CC2)c1CC(=O)N=S(N)(=O)c1sc(C(C)(C)O)cc1F` (single isomer, unassigned) [Example 56, (S)- or (R)-2-(4-chloro-2-cyclopropyl-3-fluoro-6-isopropylphenyl)-N-(3-fluoro-5-(2-hydroxypropan-2-yl)thiophen-2-ylsulfonimidoyl)acetamide] reads 200 to 1000 nM.
Regarding `CCc1cc(C#N)cc(C(C)C)c1CC(=O)N=S(N)(=O)c1ccc(CN(C)C)cc1` (single isomer, unassigned) [Example 58, (S)- or (R)-2-(4-cyano-2-ethyl-6-isopropylphenyl)-N-(4-((dimethylamino)methyl)phenyl-sulfonimidoyl)acetamide], the IC50 under setting [2] was over 30000 nM.
For `CCc1cc(C#N)cc(C(C)C)c1CC(=O)N=S(N)(=O)c1ccc(CN(C)C)cc1` (single isomer, unassigned) [Example 59, (R)- or (S)-2-(4-cyano-2-ethyl-6-isopropylphenyl)-N-(4-((dimethylamino)methyl)phenyl-sulfonimidoyl)acetamide], the IC50 under setting [1] was 5000 to 30000 nM.
Same read-out and setting: as for `CC(C)c1cc(C#N)cc(C2CC2)c1CC(=O)N=S(N)(=O)c1ccc(CN(C)C)cc1F` (single isomer, unassigned) [Example 62, (S)- or (R)-2-(4-cyano-2-cyclopropyl-6-isopropylphenyl)-N-(4-((dimethylamino)methyl)-2-fluorophenylsulfonimidoyl) acetamide], the figure is 1000 to 5000 nM.
For the compound `CC(C)c1cc(C#N)cc(C2CC2)c1CC(=O)N=S(N)(=O)c1ccc(CN(C)C)cc1F` (single isomer, unassigned) [Example 63, (R)- or (S)-2-(4-cyano-2-cyclopropyl-6-isopropylphenyl)-N-(4-((dimethylamino)methyl)-2-fluorophenylsulfonimidoyl) acetamide], under setting [2], the IC50 is over 30000 nM.
`CC(C)c1cc(C#N)cc(C(C)C)c1CC(=O)N=S(N)(=O)c1sc(C(C)(C)O)nc1CO` (single isomer, unassigned) [Example 64, (S)- or (R)-2-(4-cyano-2,6-diisopropylphenyl)-N-(4-(hydroxymethyl)-2-(2-hydroxypropan-2-yl)thiazol-5-ylsulfonimidoyl)acetamide]: under setting [3], the IC50 was 200 to 1000 nM.
Regarding `CC(C)(O)c1nc(CO)c(S(N)(=O)=NC(=O)Cc2c3c(cc4c2CCC4)CCC3)s1` (single isomer, unassigned) [Example 66, (S)- or (R)-2-(1,2,3,5,6,7-hexahydros-indacen-4-yl)-N-(4-(hydroxymethyl)-2-(2-hydroxypropan-2-yl)thiazol-5-ylsulfonimidoyl)acetamide], the IC50 under setting [1] fell in the range of 200 to 1000 nM.
Consider `CC(C)(O)c1nc(CO)c(S(N)(=O)=NC(=O)Cc2c3c(cc4c2CCC4)CCC3)s1` (single isomer, unassigned) [Example 67, (R)- or (S)-2-(1,2,3,5,6,7-hexahydros-indacen-4-yl)-N-(4-(hydroxymethyl)-2-(2-hydroxypropan-2-yl)thiazol-5-ylsulfonimidoyl)acetamide], for which the IC50 under setting [2] was over 30000 nM.
For `COCc1cc(C(C)C)c(CC(=O)N=S(N)(=O)c2sc(C(C)(C)O)nc2CO)c(C(C)C)c1` (single isomer, unassigned) [Example 68, (S)- or (R)-2-(2,6-diisopropyl-4-(methoxymethyl)phenyl)-N-(4-(hydroxymethyl)-2-(2-hydroxypropan-2-yl)thiazol-5-ylsulfonimidoyl)acetamide], the IC50 under setting [3] is 200 to 1000 nM.
Take `CC(C)c1cc(C#N)cc(C(C)C)c1CC(=O)N=S(N)(=O)c1ccc(CN(C)C)cc1` (single isomer, unassigned) [Example 72, (S)- or (R)-2-(4-cyano-2,6-diisopropylphenyl)-N-(4-((dimethylamino)methyl)phenyl-sulfonimidoyl)acetamide]: under setting [1], the IC50 was in the range of 1000 to 5000 nM.
As to `CC(C)c1cc(C#N)cc(C(C)C)c1CC(=O)N=S(N)(=O)c1ccc(CN(C)C)cc1` (single isomer, unassigned) [Example 73, (R)- or (S)-2-(4-cyano-2,6-diisopropylphenyl)-N-(4-((dimethylamino)methyl)phenyl-sulfonimidoyl)acetamide], under setting [2], the IC50 is over 30000 nM.
Regarding `CC(C)c1cc(C#N)cc(C2CC2)c1CC(=O)N=S(N)(=O)c1ccc(CN(C)C)cc1` (single isomer, unassigned) [Example 74, (S)- or (R)-2-(4-cyano-2-cyclopropyl-6-isopropylphenyl)-N-(4-((dimethylamino)methyl)phenyl-sulfonimidoyl)acetamide], the IC50 under setting [2] is over 30000 nM.
